{"source": "PubChem BioAssay AID1259409", "about": "(Chemical Carcinogenesis Research Information System (CCRIS), 2018)", "origin": "cited, not measured here", "system": "rodent chemically induced tumor inhibition, incidence and multiplicity", "experiment": "CCRIS tumor inhibitor studies", "settings": "for outcome: Target Tissue: Type of Lesion: THYROID GLAND: ADENOMA"}
{"compound": "C/C(=C\\c1ccc(C(=O)O)cc1)c1ccc2c(c1)C(C)(C)CCC2(C)C", "values": [{"measurement": "tumour outcome (control, treated, inhibition, significance)", "setting": "Carcinogen: 7,12-DIMETHYLBENZ[A]ANTHRACENE, 57-97-6, Dose [Inhibitor]: 0.17 NMOL IN 0.2 ML ACETONE 1 HR PRIOR TO EACH PROMOTER DOSE FOR 12 WK (STUDY DURATION: 14 WK), Route [Inhibitor]: DERMAL, Species: MOUSE, Strain/Sex: SENCAR/FEMALE, Target Tissue: Type of Lesion: SKIN: PAPILLOMA, Dose [Carcinogen]: 200 NMOL IN 0.2 ML ACETONE ONCE, Promoter: 12-O-TETRADECANOYLPHORBOL-13-ACETATE, 16561-29-8", "value": "100%, 100%, 0%, not calculated"}, {"measurement": "tumour outcome (control, treated, inhibition, significance)", "setting": "Carcinogen: 7,12-DIMETHYLBENZ[A]ANTHRACENE, 57-97-6, Dose [Inhibitor]: 0.17 NMOL IN 0.2 ML ACETONE 1 HR PRIOR TO EACH PROMOTER DOSE FOR 20 WK (STUDY DURATION: 22 WK), Route [Inhibitor]: DERMAL, Species: MOUSE, Strain/Sex: CD-1/FEMALE, Target Tissue: Type of Lesion: SKIN: PAPILLOMA, Dose [Carcinogen]: 200 NMOL IN 0.2 ML ACETONE ONCE, Promoter: 12-O-TETRADECANOYLPHORBOL-13-ACETATE, 16561-29-8", "value": "94%, 80%, 15%, not calculated"}, {"measurement": "tumour outcome (control, treated, inhibition, significance)", "setting": "Carcinogen: 7,12-DIMETHYLBENZ[A]ANTHRACENE, 57-97-6, Dose [Inhibitor]: 1.7 NMOL IN 0.2 ML ACETONE 1 HR PRIOR TO EACH PROMOTER DOSE FOR 12 WK (STUDY DURATION: 14 WK), Route [Inhibitor]: DERMAL, Species: MOUSE, Strain/Sex: SENCAR/FEMALE, Target Tissue: Type of Lesion: SKIN: PAPILLOMA, Dose [Carcinogen]: 200 NMOL IN 0.2 ML ACETONE ONCE, Promoter: 12-O-TETRADECANOYLPHORBOL-13-ACETATE, 16561-29-8", "value": "100%, 78%, 22%, not calculated"}, {"measurement": "tumour outcome (control, treated, inhibition, significance)", "setting": "Carcinogen: 7,12-DIMETHYLBENZ[A]ANTHRACENE, 57-97-6, Dose [Inhibitor]: 1.7 NMOL IN 0.2 ML ACETONE 1 HR PRIOR TO EACH PROMOTER DOSE FOR 20 WK (STUDY DURATION: 22 WK), Route [Inhibitor]: DERMAL, Species: MOUSE, Strain/Sex: CD-1/FEMALE, Target Tissue: Type of Lesion: SKIN: PAPILLOMA, Dose [Carcinogen]: 200 NMOL IN 0.2 ML ACETONE ONCE, Promoter: 12-O-TETRADECANOYLPHORBOL-13-ACETATE, 16561-29-8", "value": "94%, 31%, 67%, not calculated"}, {"measurement": "tumour outcome (control, treated, inhibition, significance)", "setting": "Carcinogen: 7,12-DIMETHYLBENZ[A]ANTHRACENE, 57-97-6, Dose [Inhibitor]: 17 NMOL IN 0.2 ML ACETONE 1 HR PRIOR TO EACH PROMOTER DOSE FOR 12 WK (STUDY DURATION: 14 WK), Route [Inhibitor]: DERMAL, Species: MOUSE, Strain/Sex: SENCAR/FEMALE, Target Tissue: Type of Lesion: SKIN: PAPILLOMA, Dose [Carcinogen]: 200 NMOL IN 0.2 ML ACETONE ONCE, Promoter: 12-O-TETRADECANOYLPHORBOL-13-ACETATE, 16561-29-8", "value": "100%, 0%, 100%, not calculated"}]}
{"compound": "C=C1CC[C@H]2C(C)(C)CCC[C@]2(C)[C@H]1CO", "values": [{"measurement": "tumour outcome (control, treated, inhibition, significance)", "setting": "Carcinogen: 7,12-DIMETHYLBENZ[A]ANTHRACENE [57-97-6], Dose [Inhibitor]: 85 NMOL/G IN 0.1 ML ACETONE 2X/WK FOR 20 WK 1 HR PRIOR TO EACH PROMOTER DOSE BEGINNING 1 WK POST LAST CARCINOGEN DOSE (S, Route [Inhibitor]: DERMAL, Species: MOUSE, Strain/Sex: ICR/FEMALE, Target Tissue: Type of Lesion: SKIN: PAPILLOMA, Dose [Carcinogen]: 390 NMOL IN 0.1 ML ACETONE ONCE (STUDY DURATION: 21 WK), Promoter: 12-O-TETRADECANOYL-13-ACETATE [16561-29-8]", "value": "100%, 65%, 35%, not calculated"}]}
{"compound": "N[C@@H](CS)C(=O)O", "values": [{"measurement": "tumour outcome (control, treated, inhibition, significance)", "setting": "Carcinogen: 7,12-DIMETHYLBENZ[A]ANTHRACENE, 57-97-6, Dose [Inhibitor]: 0.03 NMOL/G DIET DAILY FOR 17 WK STARTING 1 WK PRIOR TO CARCINOGEN TREATMENT AND CONTINUING THROUGH THE END OF THE STUDY, Route [Inhibitor]: ORAL, Species: RAT, Strain/Sex: SPRAGUE-DAWLEY/FEMALE, Target Tissue: Type of Lesion: MAMMARY GLAND: TUMOR, Dose [Carcinogen]: 12 MG IN 1 ML OLIVE OIL ONCE, Promoter: NONE USED", "value": "59%, 61%, -3%, not significant"}, {"measurement": "tumour outcome (control, treated, inhibition, significance)", "setting": "Carcinogen: TRANS-5-AMINO-3-[2-(5-NITRO-2-FURYL)VINYL]-1,2,4-OXADIAZOLE;SQL8506, 28754-68-9, Carcinogen: TRANS-5-AMINO-3-[2-(5-NITRO-2-FURYL)VINYL]-1,2,4-OXADIAZOLE;SQL8506, 28754-68-9, Dose [Inhibitor]: 100 MG/KG 16 HR BEFORE THE 1ST CARCINOGEN DOSE FOLLOWED BY ADDITIONAL DOSES IMMEDIATELY BEFORE EACH DOSE OF CARCINOGEN (, Route [Inhibitor]: INTRAPERITONEAL, Species: MOUSE, Strain/Sex: CD-1/FEMALE, Target Tissue: Type of Lesion: HEMATOPOIETIC SYSTEM: MYELOID LEUKEMIA, Dose [Carcinogen]: 1 G/KG 2/D FOR 5 D EVERY 4 WK, Promoter: NONE USED", "value": "7/137 (5%), 1/32 (3%), 40%, not calculated"}, {"measurement": "tumour outcome (control, treated, inhibition, significance)", "setting": "Carcinogen: TRANS-5-AMINO-3-[2-(5-NITRO-2-FURYL)VINYL]-1,2,4-OXADIAZOLE;SQL8506, 28754-68-9, Carcinogen: TRANS-5-AMINO-3-[2-(5-NITRO-2-FURYL)VINYL]-1,2,4-OXADIAZOLE;SQL8506, 28754-68-9, Dose [Inhibitor]: 100 MG/KG 16 HR BEFORE THE 1ST CARCINOGEN DOSE FOLLOWED BY ADDITIONAL DOSES IMMEDIATELY BEFORE EACH DOSE OF CARCINOGEN (, Route [Inhibitor]: INTRAPERITONEAL, Species: MOUSE, Strain/Sex: CD-1/FEMALE, Target Tissue: Type of Lesion: LYMPHOID TISSUE: NONTHYMIC LYMPHOMA, Dose [Carcinogen]: 1 G/KG 2/D FOR 5 D EVERY 4 WK, Promoter: NONE USED", "value": "8/137 (6%), 1/32 (3%), 50%, not calculated"}, {"measurement": "tumour outcome (control, treated, inhibition, significance)", "setting": "Carcinogen: TRANS-5-AMINO-3-[2-(5-NITRO-2-FURYL)VINYL]-1,2,4-OXADIAZOLE;SQL8506, 28754-68-9, Carcinogen: TRANS-5-AMINO-3-[2-(5-NITRO-2-FURYL)VINYL]-1,2,4-OXADIAZOLE;SQL8506, 28754-68-9, Dose [Inhibitor]: 100 MG/KG 16 HR BEFORE THE 1ST CARCINOGEN DOSE FOLLOWED BY ADDITIONAL DOSES IMMEDIATELY BEFORE EACH DOSE OF CARCINOGEN (, Route [Inhibitor]: INTRAPERITONEAL, Species: MOUSE, Strain/Sex: CD-1/FEMALE, Target Tissue: Type of Lesion: LYMPHOID TISSUE: THYMIC LYMPHOMA, Dose [Carcinogen]: 1 G/KG 2/D FOR 5 D EVERY 4 WK, Promoter: NONE USED", "value": "22/137 (16%), 5/32 (16%), 0%, not calculated"}, {"measurement": "tumour outcome (control, treated, inhibition, significance)", "setting": "Carcinogen: TRANS-5-AMINO-3-[2-(5-NITRO-2-FURYL)VINYL]-1,2,4-OXADIAZOLE;SQL8506, 28754-68-9, Carcinogen: TRANS-5-AMINO-3-[2-(5-NITRO-2-FURYL)VINYL]-1,2,4-OXADIAZOLE;SQL8506, 28754-68-9, Dose [Inhibitor]: 100 MG/KG 16 HR BEFORE THE 1ST CARCINOGEN DOSE FOLLOWED BY ADDITIONAL DOSES IMMEDIATELY BEFORE EACH DOSE OF CARCINOGEN (, Route [Inhibitor]: INTRAPERITONEAL, Species: MOUSE, Strain/Sex: CD-1/FEMALE, Target Tissue: Type of Lesion: STOMACH: SQUAMOUS CARCINOMA, Dose [Carcinogen]: 1 G/KG 2/D FOR 5 D EVERY 4 WK, Promoter: NONE USED", "value": "60/137 (44%), 9/32 (28%), 36%, not calculated"}]}
{"compound": "CCCCCCCCCCCCCCCC(=O)OCC(COC(=O)CCCCCCCCCCCCCCC)OC(=O)CCCCCCCCCCCCCCC", "values": [{"measurement": "tumour outcome (control, treated, inhibition, significance)", "setting": "Carcinogen: DIMETHYLBENZANTHRACENE, 57-97-6, Dose [Inhibitor]: APPLIED 3 MIN POST EACH PROMOTER DOSE 3/WK FOR 20 WK BEGINNING 3 D POST CARCINOGEN DOSE (STUDY DURATION: 20 WK), Route [Inhibitor]: DERMAL, Species: MOUSE, Strain/Sex: SWISS/?, Target Tissue: Type of Lesion: SKIN: TUMOR, Dose [Carcinogen]: 250 UG/0.25 ML ONCE, Promoter: CROTON OIL, 8001-28-3", "value": "100%, 25%, 75%, not calculated"}]}
{"compound": "CCNc1nc(Cl)nc(NC(C)C)n1", "values": [{"measurement": "outcome", "setting": "Carcinogen: N-NITROSOBIS(2-HYDROXYPROPYL)AMINE, 53609-64-6, Dose [Inhibitor]: 0, 400 PPM IN DIET FOR 25 WK BEGINNING 9 WK POST CARCINOGEN TREATMENT (STUDY DURATION: 35 WK), Route [Inhibitor]: ORAL, Species: RAT, Strain/Sex: F344/FEMALE, Dose [Carcinogen]: 2000 MG/KG 1 WK POST BILATERAL OVARIECTOMY, Promoter: SULFADIMETHOXINE, 122-11-2", "value": "0/12 (0%), 0/15 (0%), 0%, not significant"}, {"measurement": "tumour outcome (control, treated, inhibition, significance)", "setting": "Carcinogen: N-NITROSOBIS(2-HYDROXYPROPYL)AMINE, 53609-64-6, Dose [Inhibitor]: 0, 400 PPM IN DIET FOR 25 WK BEGINNING 9 WK POST CARCINOGEN TREATMENT (STUDY DURATION: 35 WK), Route [Inhibitor]: ORAL, Species: RAT, Strain/Sex: F344/FEMALE, Target Tissue: Type of Lesion: THYROID GLAND: CARCINOMA, Dose [Carcinogen]: 2000 MG/KG 1 WK POST BILATERAL OVARIECTOMY, Promoter: SULFADIMETHOXINE, 122-11-2", "value": "10/12 (83%), 9/15 (60%), 28%, not significant"}, {"measurement": "outcome", "setting": "Carcinogen: N-NITROSOBIS(2-HYDROXYPROPYL)AMINE, 53609-64-6, Dose [Inhibitor]: 0, 400 PPM IN DIET FOR 27 WK BEGINNING 9 WK POST CARCINOGEN TREATMENT (STUDY DURATION: 37 WK), Route [Inhibitor]: ORAL, Species: RAT, Strain/Sex: F344/FEMALE, Dose [Carcinogen]: 2000 MG/KG BW 1 WK POST BILATERAL OVARIECTOMY, Promoter: SULFADIMETHOXINE, 122-11-2", "value": "0/12 (0%), 0/15 (0%), 0%, not significant"}, {"measurement": "tumour outcome (control, treated, inhibition, significance)", "setting": "Carcinogen: N-NITROSOBIS(2-HYDROXYPROPYL)AMINE, 53609-64-6, Dose [Inhibitor]: 0, 400 PPM IN DIET FOR 27 WK BEGINNING 9 WK POST CARCINOGEN TREATMENT (STUDY DURATION: 37 WK), Route [Inhibitor]: ORAL, Species: RAT, Strain/Sex: F344/FEMALE, Target Tissue: Type of Lesion: THYROID GLAND: CARCINOMA, Dose [Carcinogen]: 2000 MG/KG BW 1 WK POST BILATERAL OVARIECTOMY, Promoter: SULFADIMETHOXINE, 122-11-2", "value": "10/12 (83%), 8/15 (53%), 36%, not significant"}]}
